For test [1], the system named is Phospho-KIT (Y703) in M07e cells. Kind of test: Phospho-KIT (Y703) cellular assay in M07e cells. It counts as cell-based. Particulars: M-07e; Phospho-KIT (Y703), M07e cells; read-out: M07e Cell IC50. The protocol: Phospho-KIT (Y703) Cellular Assay in M07e Cells
The day prior to assay, M07e cells (DSMZ, catalog #ACC 104) were serum starved. Cells were centrifuged and cell pellet resuspended in OptiMEM (Gibco, catalog #31985062) to a density of 1×10^6-2.5×10^6 cells per mL. Cells were then incubated overnight at 5% CO2 and 37° C. in an appropriately sized flask. On the day of the experiment, an 11 point, half log titration of test compound was pre-dispensed into 96-well round bottom polypropylene plates (Corning, catalog #3365). The serum starved M07e cells were centrifuged and resuspended to a cell density of 1×10^6 cells per mL with DPBS (Gibco, catalog #14190-144). Live/Dead Green Fixable viability dye (Invitrogen, catalog #L34970) was added as 1 μL/1 mL of cell suspension. Cells were then incubated in the dark at 4° C. for 30 min. Cells were washed by centrifugation and resuspension with DPBS+0.5% BSA (Gemini Bio Products, catalog #700110/100, 30% BSA solution). Cells were resuspended, separated into two equal volumes and again centrifuged. Cell pellets were resuspended with OptiMEM™ to a cell density of 1×10^6 cells per mL. Cells were then added to the appropriate compound plate at 100,000 cells per well in 100 μL and mixed. Plates were incubated at 5% CO2 and 37° C. for 50 min. Stem Cell Factor, SCF (R&D Systems, #255-SC/CF) was diluted in OptiMEM to 1 μg/mL and added to all wells as 10 μL for a final concentration of 90.9 ng/mL. Plates were incubated at 5% CO2 and 37° C. for 10 min. Incubation was stopped by addition of 110 μL 4% paraformaldehyde solution in PBS (Life Technologies, catalog #J19943.K2). Plates were incubated at rt for at least 15 min. Plates were then centrifuged and supernatant removed by flicking. Cells were washed once by resuspension in 200 μL DPBS+0.5% BSA, centrifuged, and supernatant removed by flicking. Cells were resuspended in 100 μL 1X Permeabilization buffer (Invitrogen, catalog #88882400) and plates incubated at rt for 30 min. Plates were centrifuged, supernatant removed by flicking, and cells resuspended in 50 μL primary antibody, anti-phospho-c-KIT (Tyr703) (Cell Signaling, catalog #3073), diluted to 1 μg/mL with permeabilization buffer. Plates were incubated at rt for 1 h. Plates were centrifuged, supernatant removed, and cells resuspended with 200 μL DPBS+0.5% BSA. Plates were again centrifuged, supernatant removed by flicking, and cells resuspended in 100 μL secondary antibody, goat anti-rabbit AlexaFluor647 (AF647) (Invitrogen, catalog #A21244) diluted to 1 μg/mL with DPBS+0.5% BSA. Plates were incubated at rt for 30 min. followed by centrifugation, supernatant removal, and cell resuspension with 200 μL DPBS+0.5% BSA. Cells were washed again by centrifugation, supernatant removal, and cell resuspension with 200 μL DPBS+0.5% BSA. Samples were then read by flow cytometry. The Forward: Side scatter plot was gated and that population was gated for live cells based on the Live/Dead Green staining. The geometric mean of AF647 of the live cell population was recorded. Percentage maximum activity in each test well was calculated based on DMSO (100% activity) and positive control treated cell wells (0% activity). The potencies (IC50 values) of test compounds were determined using a standard 4-parameter non-linear regression fit.

The next test concerns the target c-Kit (Homo sapiens (Human), UniProt P10721). Description: Inhibition of c-Kit kinase activity (HTRF KinEASE-TK). It counts as biochemical. Particulars: biochemical, HTRF KinEASE-TK. The procedure, abridged:
(§1)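 Recombinant kinases (2 nM CSF1R and c-Kit, 10 nM PDGFRα/β, 2× working) preincubated 1 h with compound in 50 mM HEPES pH 7.4, 5 mM MgCl2 (c-Kit) or 10 mM (others), 2 mM MnCl2; 2× ATP: c-Kit 16 μM, PDGFRα 1 μM, PDGFRβ 40 μM, CSF1R 20 μM. 120 min reaction at rt; TR-FRET 665/620 nm; IC50 by 4-parameter fit.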
A general note: In TR-FRET formats the signal depends on donor and acceptor labels being close together.

For the next test, the target named is CSF1R (Homo sapiens (Human), UniProt P07333). Description: Inhibition of CSF1R kinase activity (HTRF KinEASE-TK). The settings on record: biochemical, HTRF KinEASE-TK. An outline of the steps: as §1
Sequence of CSF1R (P07333 20-972): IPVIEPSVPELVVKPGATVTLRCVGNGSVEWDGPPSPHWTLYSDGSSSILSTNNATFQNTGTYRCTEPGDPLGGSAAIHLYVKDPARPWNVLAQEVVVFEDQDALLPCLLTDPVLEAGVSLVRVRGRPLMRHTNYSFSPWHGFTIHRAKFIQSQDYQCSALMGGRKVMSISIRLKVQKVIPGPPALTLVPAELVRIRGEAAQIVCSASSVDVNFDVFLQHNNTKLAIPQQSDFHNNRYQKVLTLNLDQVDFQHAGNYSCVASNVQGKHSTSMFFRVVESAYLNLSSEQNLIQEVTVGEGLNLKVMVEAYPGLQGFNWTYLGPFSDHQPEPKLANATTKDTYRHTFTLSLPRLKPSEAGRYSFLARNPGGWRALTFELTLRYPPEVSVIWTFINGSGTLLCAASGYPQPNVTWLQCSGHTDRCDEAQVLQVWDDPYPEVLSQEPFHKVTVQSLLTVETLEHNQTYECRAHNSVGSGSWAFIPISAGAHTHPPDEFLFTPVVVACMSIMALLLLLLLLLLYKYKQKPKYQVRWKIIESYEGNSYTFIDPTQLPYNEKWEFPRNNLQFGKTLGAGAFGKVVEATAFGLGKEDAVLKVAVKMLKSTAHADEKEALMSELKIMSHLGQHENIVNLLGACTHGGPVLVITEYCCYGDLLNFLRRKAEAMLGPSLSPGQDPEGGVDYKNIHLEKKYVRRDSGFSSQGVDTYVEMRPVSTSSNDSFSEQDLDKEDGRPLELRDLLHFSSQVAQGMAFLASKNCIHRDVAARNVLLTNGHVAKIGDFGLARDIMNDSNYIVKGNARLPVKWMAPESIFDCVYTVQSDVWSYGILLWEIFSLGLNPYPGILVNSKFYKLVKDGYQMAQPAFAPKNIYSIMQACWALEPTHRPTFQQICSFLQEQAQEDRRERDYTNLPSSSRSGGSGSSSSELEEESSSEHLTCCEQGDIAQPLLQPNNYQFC
The next test deals with PDGFRβ (Homo sapiens (Human), UniProt P09619). Kind of test: Inhibition of PDGFRβ kinase activity (HTRF KinEASE-TK). The settings on record: biochemical, HTRF KinEASE-TK. The procedure, abridged: as §1
Sequence of PDGFRβ (P09619 33-1106): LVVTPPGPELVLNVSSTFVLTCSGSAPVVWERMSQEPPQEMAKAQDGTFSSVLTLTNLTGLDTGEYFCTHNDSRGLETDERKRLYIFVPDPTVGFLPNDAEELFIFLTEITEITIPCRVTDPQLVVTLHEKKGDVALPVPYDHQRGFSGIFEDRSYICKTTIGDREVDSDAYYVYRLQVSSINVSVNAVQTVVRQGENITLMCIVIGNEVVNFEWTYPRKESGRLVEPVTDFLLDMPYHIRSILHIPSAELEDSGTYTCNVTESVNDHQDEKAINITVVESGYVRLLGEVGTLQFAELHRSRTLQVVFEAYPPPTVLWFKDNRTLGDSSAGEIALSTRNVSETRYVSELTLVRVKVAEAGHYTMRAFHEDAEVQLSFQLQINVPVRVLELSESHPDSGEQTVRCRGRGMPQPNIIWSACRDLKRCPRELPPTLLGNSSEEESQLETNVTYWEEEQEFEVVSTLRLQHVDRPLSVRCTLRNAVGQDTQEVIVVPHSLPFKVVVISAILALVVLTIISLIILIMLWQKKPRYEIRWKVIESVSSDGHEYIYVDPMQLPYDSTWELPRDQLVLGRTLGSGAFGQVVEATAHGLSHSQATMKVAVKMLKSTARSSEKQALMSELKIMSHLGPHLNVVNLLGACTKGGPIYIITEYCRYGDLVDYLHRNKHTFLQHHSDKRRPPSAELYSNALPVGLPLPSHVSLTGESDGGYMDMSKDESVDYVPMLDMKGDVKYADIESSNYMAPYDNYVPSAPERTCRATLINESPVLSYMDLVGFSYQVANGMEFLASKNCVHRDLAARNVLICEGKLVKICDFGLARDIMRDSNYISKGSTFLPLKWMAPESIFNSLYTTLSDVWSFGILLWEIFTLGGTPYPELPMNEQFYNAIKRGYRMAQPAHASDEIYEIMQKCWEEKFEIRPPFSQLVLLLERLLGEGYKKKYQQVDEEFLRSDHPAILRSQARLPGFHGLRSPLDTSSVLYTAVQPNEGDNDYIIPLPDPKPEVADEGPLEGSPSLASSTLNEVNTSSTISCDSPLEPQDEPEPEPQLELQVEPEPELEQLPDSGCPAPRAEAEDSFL
The next test has as its target PDGFRα (Homo sapiens (Human), UniProt P16234). Kind of test: Inhibition of PDGFRα kinase activity (HTRF KinEASE-TK). The settings on record: biochemical, HTRF KinEASE-TK. An outline of the steps: as §1

Sequence of PDGFRα (P16234 24-1089): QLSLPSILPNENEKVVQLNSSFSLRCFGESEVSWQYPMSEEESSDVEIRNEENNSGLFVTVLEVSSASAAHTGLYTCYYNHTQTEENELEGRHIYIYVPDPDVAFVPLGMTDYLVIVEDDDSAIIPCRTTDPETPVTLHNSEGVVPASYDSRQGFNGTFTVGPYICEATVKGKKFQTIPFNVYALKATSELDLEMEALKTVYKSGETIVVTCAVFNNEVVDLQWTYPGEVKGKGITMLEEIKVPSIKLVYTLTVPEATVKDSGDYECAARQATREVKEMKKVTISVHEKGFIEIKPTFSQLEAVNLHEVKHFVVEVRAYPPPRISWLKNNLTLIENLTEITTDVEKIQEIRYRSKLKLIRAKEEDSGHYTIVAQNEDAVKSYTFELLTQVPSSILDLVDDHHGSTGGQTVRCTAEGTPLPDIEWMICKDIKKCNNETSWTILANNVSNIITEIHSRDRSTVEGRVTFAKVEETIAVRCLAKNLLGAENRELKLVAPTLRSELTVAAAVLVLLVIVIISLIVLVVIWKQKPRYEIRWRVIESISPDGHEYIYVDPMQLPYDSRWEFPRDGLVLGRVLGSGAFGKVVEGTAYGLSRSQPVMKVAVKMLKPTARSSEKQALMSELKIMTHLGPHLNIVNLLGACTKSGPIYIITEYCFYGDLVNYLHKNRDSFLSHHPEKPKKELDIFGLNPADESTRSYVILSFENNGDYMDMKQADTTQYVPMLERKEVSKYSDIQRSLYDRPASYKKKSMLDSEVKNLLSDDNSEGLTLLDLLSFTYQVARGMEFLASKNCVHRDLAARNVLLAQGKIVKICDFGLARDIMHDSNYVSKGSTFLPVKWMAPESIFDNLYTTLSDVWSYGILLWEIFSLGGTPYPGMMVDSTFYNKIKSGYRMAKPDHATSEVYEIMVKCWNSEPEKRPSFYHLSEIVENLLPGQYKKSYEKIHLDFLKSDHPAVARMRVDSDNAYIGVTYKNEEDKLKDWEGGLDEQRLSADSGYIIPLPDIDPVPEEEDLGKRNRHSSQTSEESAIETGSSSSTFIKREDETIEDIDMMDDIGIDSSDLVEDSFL
Sequence of c-Kit (P10721 26-976): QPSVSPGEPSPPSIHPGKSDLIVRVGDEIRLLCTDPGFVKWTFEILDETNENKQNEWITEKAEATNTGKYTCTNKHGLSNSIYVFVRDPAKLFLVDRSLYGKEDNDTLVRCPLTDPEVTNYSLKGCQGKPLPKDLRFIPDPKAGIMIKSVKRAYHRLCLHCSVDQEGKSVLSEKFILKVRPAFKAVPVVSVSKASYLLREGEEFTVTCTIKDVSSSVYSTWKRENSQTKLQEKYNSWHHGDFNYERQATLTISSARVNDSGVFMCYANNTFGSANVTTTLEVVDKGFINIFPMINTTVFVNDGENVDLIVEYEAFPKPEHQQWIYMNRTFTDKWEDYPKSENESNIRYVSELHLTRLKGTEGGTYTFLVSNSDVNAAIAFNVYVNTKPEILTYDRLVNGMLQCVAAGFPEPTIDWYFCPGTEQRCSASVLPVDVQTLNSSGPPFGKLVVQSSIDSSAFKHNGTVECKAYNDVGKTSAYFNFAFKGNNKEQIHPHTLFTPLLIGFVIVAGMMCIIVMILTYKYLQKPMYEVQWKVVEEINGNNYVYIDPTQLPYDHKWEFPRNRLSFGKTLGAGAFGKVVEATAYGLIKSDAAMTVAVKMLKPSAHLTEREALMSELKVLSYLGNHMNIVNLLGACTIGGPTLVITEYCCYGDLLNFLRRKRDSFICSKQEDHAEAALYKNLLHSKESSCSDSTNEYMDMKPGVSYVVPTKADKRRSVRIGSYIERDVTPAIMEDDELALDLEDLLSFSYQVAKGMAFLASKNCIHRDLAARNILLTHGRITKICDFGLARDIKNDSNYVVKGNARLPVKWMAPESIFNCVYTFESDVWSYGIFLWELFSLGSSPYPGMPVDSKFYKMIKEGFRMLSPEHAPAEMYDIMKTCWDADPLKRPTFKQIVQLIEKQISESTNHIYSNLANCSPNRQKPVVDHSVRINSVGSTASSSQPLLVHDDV

The IC50 is the midpoint of a concentration-inhibition curve. Turning to `Cc1ncc(C(=O)Nc2cc(C(=O)NCc3cccnc3)c(F)cc2C)s1` [Example 12, N-(4-Fluoro-2-methyl-5-((pyridin-3-ylmethyl)carbamoyl)phenyl)-2-methylthiazole-5-carboxamide], the IC50 (in test [1]; at c-Kit) was 100 to 1000 nM throughout.

As for `Cc1cc(F)c(C(=O)Nc2ccc(OC3COC4(CC4)C3)cn2)cc1NC(=O)c1cnc(N)s1` (stereo not drawn) [Example 199, 2-Amino-N-[4-fluoro-2-methyl-5-[[5-(4-oxaspiro[2.4]heptan-6-yloxy)pyridin-2-yl]carbamoyl]phenyl]-1,3-thiazole-5-carboxamide], the IC50 at CSF1R was > 1000 nM; on PDGFRβ it was > 1000 nM; against PDGFRα, > 1000 nM; at c-Kit, < 100 nM.

`Nc1ncc(C(=O)Nc2cc(C(=O)NC3CC3)c(F)cc2Cl)s1` [Example 200, 2-Amino-N-[2-chloro-5-(cyclopropylcarbamoyl)-4-fluorophenyl]-1,3-thiazole-5-carboxamide]: the half-inhibitory concentration (IC50) against CSF1R is > 1000 nM; against PDGFRβ, > 1000 nM; on PDGFRα it was 100 to 1000 nM; on c-Kit, < 100 nM.

For `COc1ccc(NC(=O)c2cc(NC(=O)c3cnc(N)s3)c(F)cc2F)nc1` [Example 211, 2-Amino-N-[2,4-difluoro-5-[(5-methoxypyridin-2-yl)carbamoyl]phenyl]-1,3-thiazole-5-carboxamide], the IC50 was > 1000 nM against CSF1R, > 1000 nM against PDGFRβ, > 1000 nM on PDGFRα and < 100 nM at c-Kit.

Turning to `Cc1cc(F)c(NC(=O)c2cnc(N)s2)cc1C(=O)Nc1ccc(OC2CC2)cn1` [Example 223, 2-Amino-N-[5-[(5-cyclopropyloxypyridin-2-yl)carbamoyl]-2-fluoro-4-methylphenyl]-1,3-thiazole-5-carboxamide], the IC50 at CSF1R is > 1000 nM; on PDGFRβ, > 1000 nM; against PDGFRα it was > 1000 nM; against c-Kit, 100 to 1000 nM.

On to `Cc1cc(Cl)c(C(=O)Nc2ccc(OC3CC3)cn2)cc1NC(=O)c1cnc(N)s1` [Example 224, 2-Amino-N-[4-chloro-5-[(5-cyclopropyloxypyridin-2-yl)carbamoyl]-2-methylphenyl]-1,3-thiazole-5-carboxamide], for which the IC50 on CSF1R was > 1000 nM; on PDGFRβ it was 100 to 1000 nM; against PDGFRα, > 1000 nM; against c-Kit, < 100 nM.

For `Cc1cc(F)c(C(=O)Nc2ccc(C(F)C(F)(F)F)cn2)cc1NC(=O)c1cnc(N)s1` (stereo not drawn) [Example 225, 2-Amino-N-[4-fluoro-2-methyl-5-[[5-(1,2,2,2-tetrafluoroethyl)pyridin-2-yl]carbamoyl]phenyl]-1,3-thiazole-5-carboxamide], the IC50 against CSF1R is 100 to 1000 nM; against PDGFRβ, < 100 nM; against PDGFRα it was 100 to 1000 nM; on c-Kit, < 100 nM.

As to `COc1ccc(NC(=O)c2cc(NC(=O)c3cnc(N)s3)c(C)cc2F)c(F)c1` [Example 228, 2-Amino-N-[4-fluoro-5-[(2-fluoro-4-methoxyphenyl)carbamoyl]-2-methylphenyl]-1,3-thiazole-5-carboxamide], the IC50 is 100 to 1000 nM against CSF1R, 100 to 1000 nM at PDGFRβ, 100 to 1000 nM against PDGFRα and < 100 nM at c-Kit.

As to `Cc1cc(F)c(C(=O)Nc2cccc(F)c2)cc1NC(=O)c1cnc(N)s1` [Example 232, 2-Amino-N-[4-fluoro-5-[(3-fluorophenyl)carbamoyl]-2-methylphenyl]-1,3-thiazole-5-carboxamide], the IC50 is 100 to 1000 nM on CSF1R, > 1000 nM at PDGFRβ, > 1000 nM against PDGFRα and < 100 nM against c-Kit.

For the compound `Cc1cc(F)c(C(=O)Nc2ccccc2F)cc1NC(=O)c1cnc(N)s1` [Example 234, 2-Amino-N-[4-fluoro-5-[(2-fluorophenyl)carbamoyl]-2-methylphenyl]-1,3-thiazole-5-carboxamide], the IC50 is > 1000 nM on CSF1R, > 1000 nM at PDGFRβ, > 1000 nM on PDGFRα and < 100 nM at c-Kit.

With `Cc1cc(F)c(C(=O)Nc2ccc(OC3CC3)cn2)cc1NC(=O)c1cnc(NCC(F)F)s1` [Example 235, N-[5-[(5-cyclopropyloxypyridin-2-yl)carbamoyl]-4-fluoro-2-methylphenyl]-2-(2,2-difluoroethylamino)-1,3-thiazole-5-carboxamide], the IC50 on CSF1R is > 1000 nM; at PDGFRβ, 100 to 1000 nM; on PDGFRα it was > 1000 nM; on c-Kit, < 100 nM.

As to `CCc1cc(F)c(C(=O)Nc2ccc(OC3CC3)cn2)cc1NC(=O)c1cnc(N)s1` [Example 237, 2-Amino-N-[5-[(5-cyclopropyloxypyridin-2-yl)carbamoyl]-2-ethyl-4-fluorophenyl]-1,3-thiazole-5-carboxamide], the IC50 is > 1000 nM against CSF1R, > 1000 nM against PDGFRβ, > 1000 nM against PDGFRα and 100 to 1000 nM against c-Kit.

Regarding `Cc1c(F)cc(C(=O)Nc2ccc(OC3CC3)cn2)cc1NC(=O)c1cnc(N)s1` [Example 243, 2-Amino-N-[5-[(5-cyclopropyloxypyridin-2-yl)carbamoyl]-3-fluoro-2-methylphenyl]-1,3-thiazole-5-carboxamide], the IC50 at CSF1R, on PDGFRβ, on PDGFRα and on c-Kit was < 100 nM in each case.

Take `Cc1cc(F)c(C(=O)Nc2ccc(CN3CCN(C)CC3)cn2)cc1NC(=O)c1cnc(N)s1` [Example 247, 2-Amino-N-[4-fluoro-2-methyl-5-[[5-[(4-methylpiperazin-1-yl)methyl]pyridin-2-yl]carbamoyl]phenyl]-1,3-thiazole-5-carboxamide]: the IC50 is 100 to 1000 nM at CSF1R, 100 to 1000 nM at PDGFRβ, > 1000 nM against PDGFRα and < 100 nM against c-Kit.

In the case of `Cc1cc(F)c(C(=O)Nc2ccc(CN3CCOCC3)cn2)cc1NC(=O)c1cnc(N)s1` [Example 248, 2-Amino-N-[4-fluoro-2-methyl-5-[[5-(morpholin-4-ylmethyl)pyridin-2-yl]carbamoyl]phenyl]-1,3-thiazole-5-carboxamide], the IC50 at CSF1R was > 1000 nM; on PDGFRβ, > 1000 nM; at PDGFRα, > 1000 nM; against c-Kit it was < 100 nM.

`COCCOc1ccc(NC(=O)c2cc(NC(=O)c3cnc(N)s3)c(C)cc2F)nc1` [Example 252, 2-Amino-N-[4-fluoro-5-[[5-(2-methoxyethoxy)pyridin-2-yl]carbamoyl]-2-methylphenyl]-1,3-thiazole-5-carboxamide]: the half-maximal inhibitory concentration (IC50) was > 1000 nM at CSF1R, > 1000 nM on PDGFRβ, > 1000 nM against PDGFRα and < 100 nM against c-Kit.

Take `Cc1cc(F)c(C(=O)NCc2ccn(C(C)C)n2)cc1NC(=O)c1cnc(N)s1` [Example 253, 2-Amino-N-[4-fluoro-2-methyl-5-[(1-propan-2-ylpyrazol-3-yl)methylcarbamoyl]phenyl]-1,3-thiazole-5-carboxamide]: the IC50 was > 1000 nM at CSF1R, 100 to 1000 nM against PDGFRβ, 100 to 1000 nM against PDGFRα and < 100 nM against c-Kit.

Values taken from patent US20250145606A1 (Arcus Biosciences, Inc., priority 2023, published 2025).
